Reference: US9776972B2, “Pyrazole derivatives as arginine methyltransferase inhibitors and uses thereof” (priority 2013, dated 2017)
Where a name gives a salt, the structure may show the parent alone. Values belong to the molecule of their own block, whether it stands above or below them.

Biological target: T1, Human CARM1 (PRMT4) (Homo sapiens, UniProt Q86X55)
T1 construct: Flag-CARM1-His; made in house; host or cells: HEK 293F cells (BacMam baculovirus)
T1 sequence (Q86X55 1-585 isoform Q86X55-1): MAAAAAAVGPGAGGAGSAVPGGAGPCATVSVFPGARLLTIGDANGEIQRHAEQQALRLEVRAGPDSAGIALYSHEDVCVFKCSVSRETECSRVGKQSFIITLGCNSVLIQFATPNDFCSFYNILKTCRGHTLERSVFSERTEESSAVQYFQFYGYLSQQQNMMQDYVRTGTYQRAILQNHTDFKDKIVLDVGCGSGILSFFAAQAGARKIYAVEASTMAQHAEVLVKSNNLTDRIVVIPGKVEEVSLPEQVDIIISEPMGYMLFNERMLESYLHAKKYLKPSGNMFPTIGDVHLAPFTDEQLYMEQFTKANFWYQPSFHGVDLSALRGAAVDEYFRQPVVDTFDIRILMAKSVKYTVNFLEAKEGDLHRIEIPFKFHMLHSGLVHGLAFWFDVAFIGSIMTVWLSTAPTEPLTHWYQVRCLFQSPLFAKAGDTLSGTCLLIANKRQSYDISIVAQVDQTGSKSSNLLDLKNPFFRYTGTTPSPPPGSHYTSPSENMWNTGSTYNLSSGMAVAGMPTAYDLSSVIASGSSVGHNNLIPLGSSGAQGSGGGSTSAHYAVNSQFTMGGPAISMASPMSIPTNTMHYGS
Test: CARM1 Biochemical Assay (3H-SAM Flashplate, peptide substrate)
Settings: single experiment or average of multiple experiments
Text: S-adenosylmethionine (SAM), S-adenosylhomocysteine (SAH), bicine, Tween20, dimethylsulfoxide (DMSO), bovine skin gelatin (BSG), sodium butyrate and Tris(2-carboxyethyl)phosphine hydrochloride solution (TCEP) were purchased from Sigma-Aldrich at the highest level of purity possible. ^3H-SAM was purchase from American Radiolabeled Chemicals with a specific activity of 80 Ci/mmol. 384-well streptavidin Flashplates were purchased from PerkinElmer.
Peptide representative of human histone H3 residues 16-30 was synthesized with an N-terminal linker-affinity tag motif and a C-terminal amide cap by 21st Century Biochemicals. […] The sequence was Biot-Ahx-[…]-amide and contained a monomethylated arginine at position 26 (SEQ ID NO.: 14).
Recombinant baculovirus were generated according to Bac-to-Bac kit instructions (Life Technologies). […] Infections were carried out at 37° C. for 48 hours, harvested by centrifugation, and stored at −80° C. for purification.
Column was washed with 500 mM NaCl in buffer A and Flag-CARM1-His was eluted with 200 ug/ml FLAG peptide in buffer A. Pooled fractions were dialyzed in 20 mM Tris, 150 mM NaCl, 5% glycerol and 1 mM DTT, pH 7.8.
General Procedure for CARM1 Enzyme Assays on Peptide Substrates.
The assays were all performed in a buffer consisting of 20 mM Bicine (pH=7.6), 1 mM TCEP, 0.005% BSG, and 0.002% Tween 20, prepared on the day of use. […] DMSO (1 ul) was added to Columns 11, 12, 23, 24, rows A-H for the maximum signal control and 1 ul of SAH, a known product and inhibitor of CARM1, was added to columns 11, 12, 23, 24, rows I-P for the minimum signal control. A cocktail (40 ul) containing the CARM1 enzyme was added by Multidrop Combi (Thermo-Fisher). The compounds were allowed to incubate with CARM1 for 30 min at room temperature, then a cocktail (10 ul) containing ^3H-SAM and peptide was added to initiate the reaction (final volume=51 ul). […] The assays were stopped by the addition of non-radiolabeled SAM (10 ul) to a final concentration of 300 uM, which dilutes the ^3H-SAM to a level where its incorporation into the peptide substrate is no longer detectable. 50 ul of the reaction in the 384-well polypropylene plate was then transferred to a 384-well Flashplate and the biotinylated peptides were allowed to bind to the streptavidin surface for at least 1 hour before being washed once with 0.1% Tween20 in a Biotek ELx405 plate washer. The plates were then read in a PerkinElmer TopCount plate reader to measure the quantity of ^3H-labeled peptide bound to the Flashplate surface, measured as disintegrations per minute (dpm) or alternatively, referred to as counts per minute (cpm).
Where dpm=disintegrations per minute, cmpd=signal in assay well, and min and max are the respective minimum and maximum signal controls.
Where top and bottom are the normally allowed to float, but may be fixed at 100 or 0 respectively in a 3-parameter fit. The Hill Coefficient normally allowed to float but may also be fixed at 1 in a 3-parameter fit. Y is the % inhibition and X is the compound concentration.

Compound: CNCCN(C)Cc1c[nH]nc1-c1cccc([N+](=O)[O-])c1 [Compound 21]
IC50: 2.09 µM

Compound: CNCCN(C)Cc1c[nH]nc1-c1ccccc1OC [Compound 23]
IC50: 1.76 µM

Compound: CNCCN(C)Cc1c[nH]nc1-c1cccc(O)c1 [Compound 26]
IC50: 2.34 µM

Compound: CNCCN(C)Cc1c[nH]nc1-c1ccc(C)cc1C [Compound 29]
IC50: 6.3 µM

Compound: CNCCN(C)Cc1cn(CCCC(O)CO)nc1-c1ccc(F)cc1 (stereo not shown) [Compound 30]
IC50: 3.68 µM

Compound: CNCCN(C)Cc1cnn(CCCC(O)CO)c1-c1ccc(F)cc1 (stereo not shown) [Compound 31]
IC50: 1.84 µM

Compound: CCNC(=O)c1cccc(-c2n[nH]cc2CN(C)CCNC)c1 [Compound 43]
IC50: 4.96 µM

Compound: CNCCN(C)Cc1c[nH]nc1-c1ccc(C(=O)c2ccccc2)cc1 [Compound 45]
IC50: 0.0429 µM

Compound: CNCCN(C)Cc1c[nH]nc1-c1ccc(F)cc1F [Compound 49]
IC50: 5.04 µM

Compound: CNCCN(C)Cc1c[nH]nc1-c1cc(F)ccc1F [Compound 50]
IC50: 4.32 µM

Compound: CNCCN(C)Cc1c[nH]nc1-c1ccc(OC)cc1OC [Compound 55]
IC50: 4.2 µM

Compound: CNCCN(C)Cc1cn(CCC(O)CO)nc1-c1ccc(F)cc1 (stereo not shown) [Compound 59]
IC50: 4.59 µM

Compound: CN(CCN)Cc1cnn(CCO)c1-c1ccc(F)cc1 [Compound 65]
IC50: 8.93 µM

Compound: CN(CCN)Cc1cn(CCO)nc1-c1ccc(F)cc1 [Compound 66]
IC50: 3.79 µM

Compound: CNCCN(C)Cc1cn(Cc2cccnc2)nc1-c1ccc(OC(C)C)cc1 [Compound 246]
IC50: 2.43 µM

Compound: CNCCN(C)Cc1cn(Cc2ccccn2)nc1-c1ccc(OC(C)C)cc1 [Compound 247]
IC50: 2.82 µM

Compound: CNCCN(C)Cc1cn(CC(=O)OC)nc1-c1ccc(OC(C)C)cc1 [Compound 248]
IC50: 3.75 µM

Compound: CNCCN(C)Cc1cnn(CC(=O)OC)c1-c1ccc(OC(C)C)cc1 [Compound 249]
IC50: 9.63 µM

Compound: CNCCN(C)Cc1cn(CC(N)=O)nc1-c1ccc(OC(C)C)cc1 [Compound 251]
IC50: 2.98 µM

Compound: CCn1ncc(CN(C)CCNC)c1-c1ccc(OC(C)C)cc1 [Compound 252]
IC50: 0.531 µM

Compound: CNCCN(C)Cc1cn(CCOC)nc1-c1ccc(OC(C)C)cc1 [Compound 253, N1-((3-(4-isopropoxyphenyl)-1-(2-methoxyethyl)-1H-pyrazol-4-yl)methyl)-N1,N2-dimethylethane-1,2-diamine hydrochloride]
IC50: 2.26 µM

Compound: CNCCN(C)Cc1cnn(C2CCCC2)c1-c1ccc(OC(C)C)cc1 [Compound 255]
IC50: 1.17 µM

Results, then the molecule that gave them:

IC50: 0.278 µM
Compound: CCCc1ccc(-c2n[nH]cc2CN(C)CCNC)cc1 [Compound 20]

IC50: 1.37 µM
Compound: CNCCN(C)Cc1c[nH]nc1-c1cccc(C#N)c1 [Compound 22]

IC50: 1.21 µM
Compound: CNCCN(C)Cc1c[nH]nc1-c1cccc(OC)c1 [Compound 24]

IC50: 1.56 µM
Compound: CNCCN(C)Cc1c[nH]nc1-c1ccc(OC)cc1 [Compound 25]

IC50: 1.71 µM
Compound: CNCCN(C)Cc1c[nH]nc1-c1ccc(O)cc1 [Compound 27]

IC50: 0.337 µM
Compound: CNCCN(C)Cc1c[nH]nc1-c1ccc(CO)cc1 [Compound 28]

IC50: 1.38 µM
Compound: CNCCN(C)Cc1c[nH]nc1-c1ccc(N)cc1 [Compound 33]

IC50: 0.0152 µM
Compound: CNCCN(C)Cc1c[nH]nc1-c1ccc(Oc2ccccc2)cc1 [Compound 37]

IC50: 0.625 µM
Compound: CNCCN(C)Cc1c[nH]nc1-c1ccc(F)c(F)c1 [Compound 51]

IC50: 1.5 µM
Compound: CNCCN(C)Cc1c[nH]nc1-c1ccc(OC)c(F)c1 [Compound 52]

IC50: 1.31 µM
Compound: CNCCN(C)Cc1c[nH]nc1-c1cccc2ccccc12 [Compound 57]

IC50: 0.582 µM
Compound: CNCCN(C)Cc1c[nH]nc1-c1ccc2ccccc2c1 [Compound 58]

IC50: 0.672 µM
Compound: CCN(CCN)Cc1c[nH]nc1-c1ccc(F)cc1 [Compound 62]

IC50: 0.802 µM
Compound: CN(CCN)Cc1c[nH]nc1-c1ccc(C#N)cc1 [Compound 68]

IC50: 0.301 µM
Compound: CNCCN(C)Cc1cn(C)nc1-c1ccc(OC(C)C)cc1 [Compound 243, N^1-((3-(4-isopropoxyphenyl)-1-methyl-1H-pyrazol-4-yl)methyl)-N1,N2-dimethylethane-1,2-diamine]

IC50: 0.413 µM
Compound: CNCCN(C)Cc1cn(C2CCC2)nc1-c1ccc(OC(C)C)cc1 [Compound 254, N1-((1-cyclobutyl-3-(4-isopropoxyphenyl)-1H-pyrazol-4-yl)methyl)-N1,N2-dimethylethane-1,2-diamine hydrochloride]

IC50: 0.571 µM
Compound: CNCCN(C)Cc1cn(C2CCCCC2)nc1-c1ccc(OC(C)C)cc1 [Compound 256]

IC50: 1.7 µM
Compound: C=CC(=O)Nc1cccc(-c2[nH]ncc2CN(C)CCNC)c1 [Compound 258]
